The source of these data is patent US20240016762A1, “DUAL ANALGESIC/ANTI-INFLAMMATORY COMPOSITIONS COMPRISING CB2 RECEPTOR AGONISTS, COMBINATIONS, AND METHODS OF USE THEREOF” (Altus Formulation lnc., priority 2020, published 2024).

In one test the target is CB2 receptor (Homo sapiens, UniProt P34972). The note with it: Smoum et al. (2015); cited from earlier work.
For test [1], the system named is plantar incision in the hind paw (post-operative incisional pain). Briefly: Rat postoperative incisional (plantar incision) pain model, von Frey withdrawal threshold. The note with it: iv; for ED50: Rattus norvegicus, read-out: ED50 (median effective dose).
Procedure: The model developed was based on that described by Labuda et al. (supra). […] All test articles were administered intravenously via the tail vein as a single bolus.
Male Sprague Dawley rats (Charles River, St-Constant, Qc, Canada), were purchased and housed in auto-ventilated cages in a climate-controlled room on a 12-hour light/dark cycle. The animals were allowed free access to food pellets and water and weighed 200-225 g at the time of the testing.
Post-operative incisional pain was induced via a 1 cm plantar incision in the hind paw. Briefly, under deep anesthesia with isoflurane the plantar aspect of the hind paw was cleaned and sterilized using a 10% povidone-iodine solution after which a 1 cm longitudinal incision was made with a number 11 blade. The incision penetrated through the skin and fascia of the plantar aspect of the foot. The plantaris muscle was also elevated and incised longitudinally, the muscle origin remaining intact. After hemostatis with gentle pressure, the skin was closed with 2 mattress sutures of 5-0 nylon and the wound site covered with an antibacterial ointment. The rats were then placed in clear Plexiglas cages with plastic grid floors (8×8 mm) and allowed to acclimate.
The pain response was evaluated using the von Frey mechanical stimulation test employing von Frey filaments applied vertically to an area adjacent to the wound. […] The resistance to bending (reflective of the applied pressure) of the filament causing a withdrawal response was then recorded as the withdrawal threshold. […] After each filament application, animals were given a 5 minute test-free period after which the test was repeated the lowest force required for a withdrawal response from the 2 tests being recorded as the withdrawal threshold (WT). […]
The paw withdrawal threshold was again measured at 0.25, 1, 2, 3, 4, 5, 6, 7, 8 hours post treatment administration animal responses being plotted as withdrawal response/time curves for each dose given as before.
Test [2] relates to corneal cauterization and capsaicin challenge (corneal pain). The note with it: cited from earlier work; for ED50: Thapa et al (2018).

Sequence of CB2 receptor (P34972 whole entry): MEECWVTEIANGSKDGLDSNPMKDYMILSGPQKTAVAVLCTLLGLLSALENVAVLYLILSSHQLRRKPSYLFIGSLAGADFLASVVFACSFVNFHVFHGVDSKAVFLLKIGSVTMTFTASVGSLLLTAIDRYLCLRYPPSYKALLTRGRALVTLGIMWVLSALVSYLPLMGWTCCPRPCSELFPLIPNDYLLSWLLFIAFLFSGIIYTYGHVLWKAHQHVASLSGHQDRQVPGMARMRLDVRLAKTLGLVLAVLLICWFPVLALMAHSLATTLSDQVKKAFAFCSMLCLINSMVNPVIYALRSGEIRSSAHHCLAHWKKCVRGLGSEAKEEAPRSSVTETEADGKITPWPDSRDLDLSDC

On to `CCCCCCC(C)(C)c1cc(OC)c([C@@H]2C=C(CO)[C@@H]3C[C@H]2C3(C)C)c(OC)c1` (single isomer, unassigned) [Batch E2], for which, at CB2 receptor, the “Affinity for CB2 receptor relative to E1” value is reported as “lower affinity for CB2 receptor than E1”.
For `Cc1ccc(-c2cc(C(F)(F)F)nn2-c2ccc(S(N)(=O)=O)cc2)cc1` [celecoxib], in test [1], the ED50 amounted to 22.3 mg/kg.
Turning to `CCCCCCC(C)(C)c1cc(OC)c([C@@H]2C=C(CO)[C@@H]3C[C@H]2C3(C)C)c(OC)c1` [HU-308], the Pain score in test [2] (1.5% solution in soybean oil, Thapa et al. (2018)) is 17. Moreover, the Analgesic effect result in test [2] (doses lower than 1.5%, Thapa et al. (2018)) is “failed to generate an analgesic effect”.
As for `CCCCCc1cc(O)c2c(c1)OC(C)(C)[C@@H]1CC=C(C)C[C@@H]21` [A8 THC], the ED50 in test [2] is recorded as 1%.
With `O=C(c1ccccc1)c1ccc2n1CCC2C(=O)O` (centres unmarked) [Ketorolac, ketorolac], in test [1], the ED50 worked out at 23.1 mg/kg and the “Dose/response relationship of AUC0.25-8 hr” value is “clear dose response effect”.
As to `C=C(C)[C@@H]1CCC(C)=C[C@H]1c1c(O)cc(CCCCC)cc1O` [CBD], the ED50 in test [2] is reported as 5%.
